According to US7803930B2, “Antisense modulation of apolipoprotein B-expression” (Isis Pharmaceuticals, Inc., priority 2002, dated 2010):
In the oligonucleotide strings, read from the 5' end, every base follows the letter of its sugar. An asterisk marks phosphorothioate; unmarked linkages are phosphodiester. Other units and linkages are bracketed, terminal groups are in braces. A string of capitals states the bases alone. e = 2'-O-(2-methoxyethyl) (MOE); [5mC] = 5-methylcytosine; d = 2'-deoxy (DNA)

Experiments:
Type in all cases: cell-based
[1] = system: human apolipoprotein(a) mRNA; experiment: Apolipoprotein(a) mRNA expression in primary human hepatocytes, real-time PCR; conditions: primary human hepatocytes, 24 hours
Experimental: Primary human hepatocytes (InVitro Technologies, Baltimore, Md.), cultured and transfected as described herein, were treated with 5, 10, 50 or 150 nM of ISIS 271009 (SEQ ID NO: 319), 281625 (SEQ ID NO: 224), 301012 (SEQ ID NO: 247) or 301027 (SEQ ID NO: 262). Cells were also treated with 50 or 150 nM of the control oligonucleotides ISIS 113529 (SEQ ID NO: 859) or ISIS 13650 (SEQ ID NO: 806). Untreated cells served as a control. Following 24 hours of oligonucleotide treatment, apolipoprotein(a) mRNA expression was measured by quantitative real-time PCR as described in other examples herein.
Probes and primers to human apolipoprotein(a) were designed to hybridize to a human apolipoprotein(a) sequence, using published sequence information (GenBank accession number NM_005577.1, incorporated herein as SEQ ID NO: 860). For human apolipoprotein(a) the PCR primers were: […]
forward primer: […] (SEQ ID NO: 861)
reverse primer: TGCGTCTGAGCATTGCGT (SEQ ID NO: 862) and the PCR probe was: FAM-[…]-TAMRA (SEQ ID NO: 863) where FAM is the fluorescent dye and TAMRA is the quencher dye.
Data are the average of three experiments and are expressed as percent inhibition relative to untreated controls.

apolipoprotein B protein = experiment: Apolipoprotein B protein secreted from primary Cynomolgous monkey hepatocytes, ELISA; conditions: primary Cynomolgous hepatocytes
Experimental: Apolipoprotein B protein secreted from primary Cynomolgous hepatocytes treated with 150 and 300 nM of oligonucleotide was measured by ELISA using an apolipoprotein B protein specific kit (ALerCHEK Inc., Portland, Me.). Each result represents the average of 3 experiments.
Apolipoprotein B protein secreted primary Cynomolgous hepatocytes treated with 50 and 150 nM of ISIS 315089 and ISIS 281625 was measured by ELISA using an apolipoprotein B protein specific kit (ALerCHEK Inc., Portland, Me.). Each result represents the average of 3 experiments.
Apolipoprotein B protein secreted from primary Cynomolgous hepatocytes treated with 50 and 150 nM of ISIS 271009 and ISIS 301027 was measured by ELISA using an apolipoprotein B protein specific kit (ALerCHEK Inc., Portland, Me.). Each result represents the average of 3 experiments.

lipoprotein(a) = experiment: Lipoprotein(a) particle secretion from primary human hepatocytes, ELISA; conditions: 150 nM, 24 hours
Experimental: Primary human hepatocytes (InVitro Technologies, Baltimore, Md.), cultured and transfected as described herein, were treated for 24 hours with 50 or 150 nM of ISIS 271009 (SEQ ID NO: 319), 281625 (SEQ ID NO: 224), 301012 (SEQ ID NO: 247) or 301027 (SEQ ID NO: 262). Cells were also treated with 150 nM of the control oligonucleotides ISIS 113529 (SEQ ID NO: 859) or ISIS 13650 (SEQ ID NO: 806). Untreated cells served as a control. Following 24 hours of oligonucleotide treatment, the amount of lipoprotein(a) in the culture medium collected from the treated cells was measured using a commercially available ELISA kit (ALerCHEK Inc., Portland, Me.). The results are the average of three experiments and are expressed as percent change in lipoprotein(a) secretion relative to untreated controls.

[2] = system: Cynomolgous monkey apolipoprotein B mRNA; experiment: Apolipoprotein B mRNA in primary Cynomolgous monkey hepatocytes, real-time PCR; conditions: primary Cynomolgous monkey hepatocytes, 24 hours (Table 46)
Experimental: Antisense inhibition by ISIS 301012 was compared to that of ISIS 326358, which is a perfect match to the Cynomolgous monkey apolipoprotein B sequence to which ISIS 301012 hybridizes. The compounds were analyzed for their effect on Cynomolgous monkey apolipoprotein B mRNA levels in primary Cynomolgous monkey hepatocytes purchased from In Vitro Technologies ([…].). Pre-plated primary Cynonomolgous monkey hepatocytes were purchased from InVitro Technologies (Baltimore, Md.). Cells were cultured in high-glucose DMEM (Invitrogen Corporation, Carlsbad, Calif.) supplemented with 10% fetal bovine serum (Invitrogen Corporation, Carlsbad, Calif.), 100 units/mL and 100 μg/mL streptomycin (Invitrogen Corporation, Carlsbad, Calif.).
Primary Cynomolgous monkey hepatocytes were treated with 10, 50, 150 or 300 nM of antisense oligonucleotides for 48 hours. ISIS 113529 (SEQ ID NO: 859) was used as a control oligonucleotide. Untreated cells also served as a control. Cynomolgous monkey apolipoprotein B mRNA levels were quantitated by real-time PCR using the human apolipoprotein B and GAPDH primers and probes described by other examples herein. The results, shown in Table 44, are the average of 6 experiments and are expressed as percent inhibition of apolipoprotein B mRNA normalized to untreated control cells.
In a further embodiment of the invention, antisense inhibition by ISIS 281625 was compared to that by ISIS 315089, which is a perfect match to the Cynomolgous monkey apolipoprotein B sequence to which ISIS 281625 hybridizes. Primary Cynomolgous monkey hepatocytes, cultured as described herein, were treated with 10, 50, 150 or 300 nM of ISIS 315089 or ISIS 281625 for 24 hours. Cells were treated with the control oligonucleotide ISIS 13650 (SEQ ID NO: 806) at 150 and 300 nM or ISIS 113529 (SEQ ID NO: 859) at 300 nM. Untreated cells also served as a control. Cynomolgous monkey apolipoprotein B mRNA levels in primary Cynomolgous monkey hepatocytes was quantitated using real-time PCR with human primers and probe as described by other examples herein. The results, shown in Table 46, are the average of 3 experiments and are expressed as percent inhibition of apolipoprotein B mRNA normalized to untreated control cells.
ISIS 271009 (SEQ ID NO: 319) and ISIS 301027 (SEQ ID NO: 262) were also tested for their effects on apolipoprotein B mRNA and protein expression in Cynomolgous primary hepatoctyes. Cells, cultured as described herein, were treated with 10, 50 and 150 nM of ISIS 271009 or ISIS 301027 for 24 hours. Cells were treated with the control oligonucleotide ISIS 113529 (SEQ ID NO: 859) at 150 nM. Untreated cells also served as a control. Cynomolgous monkey apolipoprotein B mRNA levels in primary Cynomolgous monkey hepatocytes was quantitated using real-time PCR with human primers and probe as described by other examples herein. The results, shown in Table 48, are the average of 2 experiments and are expressed as percent inhibition of apolipoprotein B mRNA normalized to untreated control cells.

[3] = system: human apolipoprotein B mRNA; experiment: Inhibition of apolipoprotein B mRNA by dsRNAs in HepG2 cells; conditions: 150 nM with 3.75 μg/mL LIPOFECTIN
Experimental: In accordance with the present invention, a series of nucleic acid duplexes comprising the antisense compounds of the present invention and their complements were designed to target apolipoprotein B and are shown in Table 42. All compounds in Table 42 are oligoribonucleotides 20 nucleotides in length with phosphodiester internucleoside linkages (backbones) throughout the compound. The compounds were prepared with blunt ends. […] These sequences are shown to contain uracil (U) but one of skill in the art will appreciate that uracil (U) is generally replaced by thymine (T) in DNA sequences. “Targer site” indicates the first (5′-most) nucleotide number on the particular target sequence to which the compound binds. A subset of the compounds in Table 42 are the RNA equivalents of DNA antisense oligonucleotides described herein, and, where applicable, this is noted by the ISIS # of the DNA oligonucleotide in the column “RNA equivalent of ISIS #”.
The dsRNA compounds in Table 42 were tested for their effects on human apolipoprotein mRNA in HepG2 cells. HepG2 cells were treated with 100 nM of dsRNA compounds mixed with 5 μg/mL LIPOFECTIN (Invitrogen Corporation, Carlsbad, Calif.) for a period of 16 hours. In the same experiment, HepG2 cells were also treated with 150 nM of subset of the antisense oligonucleotides described herein mixed with 3.75 μg/mL LIPOFECTIN; these compounds are listed in Table 43. Control oligonucleotides included ISIS 18078 ([…], SEQ ID NO: 888). ISIS 18078 is a chimeric oligonucleotide (“gapmer”) 20 nucleotides in length, composed of a central “gap” region consisting of 9 2′-deoxynucleotides, which is flanked on the 5′ and 3′ ends by a five-nucleotide “wing” and a six-nucleotide “wing”, respectively. The wings are composed of 2′-methoxyethyl (2′-MOE)nucleotides. The internucleoside (backbone) linkages are phosphorothioate (P═S) throughout the oligonucleotide. All cytidines are 5-methylcytidines. The duplex of ISIS 263188 ([…], SEQ ID NO: 889) and its complement was also used as a control. ISIS 263188 is an oligoribonucleotide 21 nucleotides in length with the 2 nucleotides on the 3′ end being oligodeoxyribonucleotides (TT) and with phosphodiester internucleoside linkages (backbones) throughout the compound.
Cells were treated for 4 hours, after which human apolipoprotein B mRNA expression was measured as described by examples herein. Results were normalized to untreated control cells, which were not treated with LIPOFECTIN or oligonucleotide.

[4] = system: human apolipoprotein B mRNA; experiment: Inhibition of human apolipoprotein B mRNA levels in HepG2 cells, quantitative real-time PCR; conditions: for % INHIB (inhibition of human apolipoprotein B mRNA levels): HepG2 cells treated with 150 nM of compound, averages from two experiments, quantitative real-time PCR; for % inhibition 37 nM / % inhibition 75 nM / % inhibition 150 nM / % inhibition 300 nM: Table 19 dose response, HepG2 cells, normalized to untreated control
Method in brief: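 HepG2 cells at 80% confluency were transfected with antisense oligonucleotide using 3.75 μg/mL Lipofectin in Opti-MEM for 4-7 h and harvested 16-24 h after treatment. Apolipoprotein B mRNA was measured by real-time RT-PCR and normalized to GAPDH or RiboGreen total RNA. Percent inhibition came from untreated-control standard curves.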

Row | Substance | % Change in apolipoprotein(a) mRNA expression following antisense inhibition of apolipoprotein B ([1]; 50 nM) | % Change in apolipoprotein(a) mRNA expression following antisense inhibition of apolipoprotein B ([1]; 150 nM) | % Reduction of monkey apolipoprotein B protein secretion (apolipoprotein B protein; 50 nM (Table 47)) | % Reduction of monkey apolipoprotein B protein secretion (apolipoprotein B protein; 150 nM (Table 47)) | % Reduction of monkey apolipoprotein B protein secretion (apolipoprotein B protein; 150 nM (Table 49), "+" = secretion increased) | % Change in lipoprotein(a) secretion (lipoprotein(a)) | % Inhibition of apolipoprotein B mRNA ([2]; 150 nM, "+" = expression increased) | % Inhibition of apolipoprotein B mRNA ([2]; 300 nM) | % Inhibition of apolipoprotein B mRNA [3] | % INHIB (inhibition of human apolipoprotein B mRNA levels) [4] | % inhibition 37 nM [4] | % inhibition 75 nM [4] | % inhibition 150 nM [4] | % inhibition 300 nM [4]
1 | 13650 (TCCCGCCTGTGACATGCATT; listed as DNA, chemistry not given here) [compound 13650] | −68% | −37% | 16% | 13% | +1% | +14% | +50% | 33% |  |  |  |  |  | 
2 | 301029 (eG*eG*e[5mC]*eT*eG*dG*d[5mC]*dT*d[5mC]*dA*d[5mC]*dT*dG*dT*dA*eT*eG*eG*eT*eT; antisense) [compound 301029] |  |  |  |  |  |  |  |  | 77% | 90% | 54% | 67% | 79% | 85%
3 | 301030 (eA*eG*eG*e[5mC]*eT*dG*dG*d[5mC]*dT*d[5mC]*dA*d[5mC]*dT*dG*dT*eA*eT*eG*eG*eT; antisense) [compound 301030] |  |  |  |  |  |  |  |  | 70% | 90% | 64% | 75% | 87% | 92%
4 | 301031 (eA*eA*eG*eG*e[5mC]*dT*dG*dG*d[5mC]*dT*d[5mC]*dA*d[5mC]*dT*dG*eT*eA*eT*eG*eG; antisense) [compound 301031] |  |  |  |  |  |  |  |  | 73% | 90% | 61% | 82% | 92% | 96%
5 | 301037 (e[5mC]*eA*eG*e[5mC]*eT*dT*dT*dG*dG*dT*dG*d[5mC]*dA*dG*dG*eT*e[5mC]*e[5mC]*eA*eG; antisense) [compound 301037] |  |  |  |  |  |  |  |  | 80% | 90% | 73% | 85% | 89% | 96%
6 | 301038 (eG*e[5mC]*e[5mC]*eA*eG*d[5mC]*dT*dT*dT*dG*dG*dT*dG*d[5mC]*dA*eG*eG*eT*e[5mC]*e[5mC]; antisense) [compound 301038] |  |  |  |  |  |  |  |  | 84% | 86% |  |  |  | 
7 | 301045 (eA*eG*e[5mC]*eA*eA*dA*dA*dT*dA*dA*d[5mC]*dT*d[5mC]*dA*dG*eA*eT*e[5mC]*e[5mC]*eT; antisense) [compound 301045] |  |  |  |  |  |  |  |  | 77% | 90% | 77% | 86% | 94% | 98%
